Source: patent publication US11576913B2 (priority 2018, dated 2023)
Entries after “also recorded” stand apart in the source; their conditions may differ.

Legend:
[1] = system: healthy, non-dependent, recreational sedative users; assay: Human abuse potential study, Drug Liking VAS; assay type: in vivo; conditions: for Drug Liking VAS - EMAX LSMean: N = 50, 100 point bipolar scale
Description: This study was designed as a randomized, single-dose, double-blinded, double dummy, crossover study. The study population was healthy, nondependent recreational polydrug users with a history of Central Nervous System (CNS) depressant use.
Subjects were screened no more than 28 days before check-in of period 1. Study drug was administered in each period according to the study randomization schedule. During Qualification, there was a minimum 24 hour washout period between each study drug administration. During the Treatment phase, there was a minimum 48-hour washout period between each study drug administration. Subjects were confined to the unit the day prior to, and for at least approximately 24 hours following, study drug administration during each period. If subjects were discharged between treatment periods, subjects returned to the unit the day prior to dosing.
The Qualification Phase was designed to ensure that polydrug abusing subjects with self-reported recreational CNS depressant/sedative drug experience were able to tolerate and discriminate between orally administered triazolam tablets and placebo as well as to report positive subjective effects of the drug in a controlled laboratory setting. This phase was also used to exclude “placebo responders”, i.e., subjects who report subjective effects of placebo. This phase also helped familiarize subjects with, and trained them in the use of, various scales and questionnaires that measure subjective effects.
(§1) The comparators in an abuse potential study are typically controlled substances from the same pharmacologic class as the investigational drug. However, Compound (1C) is a novel drug class for which no controlled substances/drugs of abuse are available for comparison. […] There was no evidence of other effects of interest to abusers, such as perceptual disturbances or stimulation. […] Placebo control was used to establish the frequency and magnitude of changes in clinical endpoints that may occur in the absence of active treatment as well as to minimize subject and investigator bias.
In all of the study phases, treatments were blinded to the greatest extent possible to reduce potential bias during data collection and evaluation of clinical endpoints. Because study subjects were recreational drug users and familiar with the effects of the drug substances being studied, the double-dummy technique was be used in the Treatment Phase to maintain blinding. Subjects received tablets orally in each treatment period. Placebo was matched in size and shape to each of the tablet types, and a method to blind subjects will be employed.
For each phase, subjects received treatments according to the randomization schema. During the Treatment Phase, subjects were be randomized to 1 of sequences in a 6×6 Williams square crossover design.
Compound (1C) was administered orally in an immediate release tablet comprising the pharmaceutically acceptable excipients croscarmellose sodium (FMC Health and Nutrition, Philadelphia, Pa.), hydroxypropylcellulose (Ashland Inc., Covington, Ky.), microcrystalline cellulose (Dupont, Chicago, Ill.), mannitol (SPI Pharma, Wilmington, Del.), magnesium stearate (PlusPharma Inc., Vista, Calif.), and sodium lauryl sulfate (BASF Corp, Upper St. Clair, Pa.). […] Placebo tablets matching the Compound (1C) tablets were orally administered in the same way. The placebo tablets comprised the above-described pharmaceutically acceptable excipients but with no Compound (1C). Triazolam was administered at a dose of 0.5 or 1 mg. Trial endpoints are provided below.
Peak Maximum Effect (Emax) for Drug Liking (“at this moment”) visual analog scale (“VAS”), was measured by study participants providing a score on a 100 point bipolar scale with 100 as strong liking, 50 as the neutral point of neither liking nor disliking, and 0 as strong disliking. […]

[2] = system: healthy, non-dependent, recreational sedative users; assay: Human abuse potential study, adverse events and tolerability; assay type: in vivo; conditions: for Amnesia / Ataxia / Diplopia / Dizziness / Euphoric mood / Headache / Hiccups / Nausea / Somnolence / Vision blurred: N = 50
Description: Adverse events were coded to MedDRA terms. Data for AEs were analyzed using the treatment-emergent signs and symptoms (TESS) philosophy. Treatment-emergent signs and symptoms are defined as AEs that: • Emerge during treatment, having been absent at pretreatment; or • Reemerge during treatment, having been present at pretreatment but stopped prior to treatment; or • Worsen in intensity during treatment relative to the pretreatment state, when the AE is continuous.
Subjects were counted only once in the incidence count for a specific MedDRA Preferred Term, although a MedDRA Preferred Term might be reported more than once for a particular subject. Separate summaries will be provided for Treatment-emergent AEs (“TEAEs”) by maximum intensity (mild, moderate, severe) and relationship (yes, no) to study drug. A TEAE was considered related to study drug if the investigator reported the event to be “definitely, probably, possibly, or unlikely” related to treatment on the CRF.

[3] = system: healthy subjects and subjects with insomnia; assay type: in vivo, human
Description: The highest doses tested in healthy subjects were for a 30-mg single dose and a 10-mg multiple dose (once daily nighttime dose for 14 days). The highest dose tested in subjects with insomnia was 10 mg.
The most frequent treatment-emergent adverse event (TEAEs) experienced by subjects was somnolence.

[4] = assay type: in vivo, human; conditions: Compound (1C) tablets administered orally
From the text: as §1

For `O=C(O)c1nc2ccccc2n([C@H]2C[C@H]3CCC[C@@H](C2)N3C2CC3CCCC(C3)C2)c1=O` (some centres unmarked) [Compound (1C)], the “Drug Liking VAS - EMAX Diff from Placebo LSMean” value (“Drug Liking VAS - EMAX Diff” below) ([1]; 1 mg) was 3.0 points, the “Drug liking compared with Triazolam 0.5 and 1 mg” value ([1]; 1 mg) was “statistically smaller; also recorded: statistically less; also recorded: (1C) 1 mg was significantly lower than” and the “Drug liking compared with placebo (words)” value ([1]; 1 mg) was “not significantly greater than placebo; also recorded: placebo was similar to placebo (upper bound”. The “Drug Liking VAS - EMAX LSMean” value ([1]; 1 mg single oral dose) was 58.1, the “Drug Liking VAS - EMAX Diff” value ([1]; 6 mg) was 17.7 points and the “Drug liking compared with Triazolam 0.5 and 1 mg” value ([1]; 6 mg) was “not statistically different”. The “Drug liking compared with placebo (words)” value ([1]; 6 mg) was “greater drug liking than placebo; also recorded: significantly greater”, the “Drug Liking VAS - EMAX LSMean” value ([1]; 6 mg single oral dose) was 72.82 and the “Drug Liking VAS - EMAX Diff” value ([1]; 10 mg) was 21.2 points. For the same compound, the “Drug liking compared with Triazolam 0.5 and 1 mg” value ([1]; 10 mg) was “not statistically different”, the “Drug liking compared with placebo (words)” value ([1]; 10 mg) was “greater drug liking than placebo; also recorded: significantly greater” and the “Drug Liking VAS - EMAX LSMean” value ([1]; 10 mg single oral dose) was 76.4. For the same compound, the “Drug Liking VAS - EMAX, Triazolam 0.5 mg - Cmpd. (1C) LSMean” value (shortened to “Drug Liking VAS - EMAX, Triazolam 0.5 mg”) ([1]; Cmpd. (1C) 1 mg) was 17.4, the “Drug Liking VAS - EMAX, Triazolam 1 mg - Cmpd. (1C) LSMean” value (from here on “Drug Liking VAS - EMAX, Triazolam 1 mg”) ([1]; Cmpd. (1C) 1 mg) was 20.5 and the “Drug Liking VAS - EMAX, Triazolam 0.5 mg” value ([1]; Cmpd. (1C) 6 mg) was 2.7. For the same compound, the “Drug Liking VAS - EMAX, Triazolam 1 mg” value ([1]; Cmpd. (1C) 6 mg) was 5.8, the “Drug Liking VAS - EMAX, Triazolam 0.5 mg” value ([1]; Cmpd. (1C) 10 mg) was −0.8 and the “Drug Liking VAS - EMAX, Triazolam 1 mg” value ([1]; Cmpd. (1C) 10 mg) was 2.3. For the same compound, the “AE profile compared with triazolam” value ([2]; 1 mg) was “more preferable AE profile than triazolam”, the Amnesia ([2]; 1 mg) was 0 n (%) and the Ataxia ([2]; 1 mg) was 1 (2) n (%). For the same compound, the Diplopia ([2]; 1 mg) was 0 n (%), the Dizziness ([2]; 1 mg) was 2 (4) n (%) and the Euphoric mood ([2]; 1 mg) was 0 n (%). For the same compound, the Headache ([2]; 1 mg) was 5 (10) n (%), the Hiccups ([2]; 1 mg) was 0 n (%) and the Nausea ([2]; 1 mg) was 1 (2) n (%). For the same compound, the Somnolence ([2]; 1 mg) was 20 (40) n (%), the Vision blurred ([2]; 1 mg) was 0 n (%) and the “AE profile compared with triazolam” value ([2]; 6 mg) was “AE profile than triazolam, and Compound (1C) at 6 and 10 mg doses had similar profiles as triazolam”. For the same compound, the “certain AE results (ataxia, hiccups, amnesia, diplopia) compared with triazolam at therapeutic doses” value ([2]; 6 mg (supratherapeutic dose)) was “superior to triazolam”, the Amnesia ([2]; 6 mg) was 0 n (%) and the Ataxia ([2]; 6 mg) was 7 (14) n (%). The Diplopia ([2]; 6 mg) was 0 n (%), the Dizziness ([2]; 6 mg) was 3 (6) n (%) and the Euphoric mood ([2]; 6 mg) was 1 (2) n (%). The Headache ([2]; 6 mg) was 2 (4) n (%), the Hiccups ([2]; 6 mg) was 0 n (%) and the Nausea ([2]; 6 mg) was 2 (4) n (%). For the same compound, the Somnolence ([2]; 6 mg) was 45 (90) n (%), the Vision blurred ([2]; 6 mg) was 2 (4) n (%) and the “AE profile compared with triazolam” value ([2]; 10 mg) was “AE profile than triazolam, and Compound (1C) at 6 and 10 mg doses had similar profiles as triazolam”. For the same compound, the “certain AE results (ataxia, hiccups, amnesia, diplopia) compared with triazolam at therapeutic doses” value ([2]; 10 mg (supratherapeutic dose)) was “superior to triazolam”, the Amnesia ([2]; 10 mg) was 0 n (%) and the Ataxia ([2]; 10 mg) was 13 (26) n (%). The Diplopia ([2]; 10 mg) was 2 (4) n (%), the Dizziness ([2]; 10 mg) was 5 (10) n (%) and the Euphoric mood ([2]; 10 mg) was 1 (2) n (%). The Headache ([2]; 10 mg) was 2 (4) n (%), the Hiccups ([2]; 10 mg) was 0 n (%) and the Nausea ([2]; 10 mg) was 2 (4) n (%). For the same compound, the Somnolence ([2]; 10 mg) was 47 (94) n (%), the Vision blurred ([2]; 10 mg) was 3 (6) n (%) and the “safety and tolerability” value ([2]; doses 1, 6 and 10 mg) was “well tolerated”. For the same compound, the “tolerability” value ([3]; 6 mg, nighttime dosing, healthy subjects and those with insomnia) was “well tolerated”, the “safety and tolerability” value ([3]; across all tested dose levels) was “safe and well tolerated” and the “serious adverse events (SAEs)” value ([3]; across all tested dose levels) was “no serious adverse events”. The “most frequent treatment-emergent adverse event” value ([3]; completed clinical studies) was “somnolence”, the “vital signs and electrocardiograms (ECGs)” value ([3]; completed clinical studies) was “no clinically significant findings” and the “next day residual effects” value ([3]; dose equal or lower than 2 mg, after 8 hours post dosing) was “dose-dependent and generally decreased (back to placebo levels)”. For the same compound, the “laboratory findings” value ([3]; including crystalluria or hematuria) was “No concerning laboratory findings” and the “Time to maximum concentration” value [4] was “approximately 1.5 hours”.
